Experimental findings from US9732046B2, “Substituted 1,2,4-triazines as tubulin inhibitors” (YM Biosciences Australia Pty Ltd., priority 2003, dated 2017) are described below.

One assay deals with DU145 (Prostate Cancer). Put plainly: Cellular growth inhibition assay (MTT), DU145. The note with it: Homo sapiens, DU-145, Table 1, 40 hr incubation. The format is cell-based. An outline of the steps: (§1)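 Late-log-phase cells (K562 in RPMI, DU145 in DMED, PC3 in F12K; all 10% FBS, Glutamx, plus MEM non-essential amino acids for DU145 and PC3) were plated at 50000–200,000 cell/mL (1.1× final) with compounds added at 10× final. After 40 hr at 37° C, 5% CO2, MTT was added for 6 hours, then SDS/HCl lysis overnight and absorbance read at 590 nm.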

The subject of another assay is PC3 (Prostate Cancer). As to the kind of experiment: Cellular growth inhibition assay (MTT), PC3. The format is cell-based. To be noted: Table 1, 40 hr incubation. An outline of the steps: as §1
The test system of assay [1] is K562 (Chronic Myeloid Leukemia). As to the kind of experiment: Cellular growth inhibition assay (MTT), K562. The format is cell-based. To be noted: Homo sapiens, Table 1, 40 hr incubation. An outline of the steps: as §1
For assay [2], the target named is T1, TelJak2 (BaF3 TELJAK cells, TEL/Jak2 fusion) (Homo sapiens, UniProt O60674).
T1 construct: The regions encompassing the kinase domain of JAK2 (nucleotides 2994-3914); expressed in transfected cells; host or cells: BaF3 cells bearing the pTET-off plasmid, transfected with pTELJAK2 (pTRE2 vector); the other entry of the earlier key: ETV6 (P41212, Transcription factor ETV6)
T1 sequence (O60674 with tags, fused parts or gaps): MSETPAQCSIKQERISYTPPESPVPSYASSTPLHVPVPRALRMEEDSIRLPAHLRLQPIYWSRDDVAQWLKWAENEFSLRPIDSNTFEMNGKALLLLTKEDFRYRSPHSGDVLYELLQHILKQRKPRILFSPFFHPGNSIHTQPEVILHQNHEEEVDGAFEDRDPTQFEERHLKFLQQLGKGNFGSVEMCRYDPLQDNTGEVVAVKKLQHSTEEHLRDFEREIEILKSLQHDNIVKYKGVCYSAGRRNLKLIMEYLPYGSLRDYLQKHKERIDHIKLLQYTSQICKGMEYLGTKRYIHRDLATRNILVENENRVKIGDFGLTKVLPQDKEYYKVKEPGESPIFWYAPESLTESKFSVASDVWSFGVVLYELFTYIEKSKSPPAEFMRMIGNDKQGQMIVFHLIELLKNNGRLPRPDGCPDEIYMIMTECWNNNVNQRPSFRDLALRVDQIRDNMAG
Put plainly: Cellular growth inhibition assay (MTT), BaF3 TEL:JAK2 cell line. The format is cell-based. The note with it: Table 1, 40 hr incubation.

For assay [3], the target named is T2, TelJak3 (BaF3 TELJAK cells, TEL/JAK3 fusion) (Homo sapiens, UniProt P52333).
T2 construct: For JAK3 Sa1 I/Not I cleaved kinase domain PCR product was ligated with BamH I/Sa1 I cleaved TELproduct; expressed in transfected cells; host or cells: BaF3 cells bearing the pTET-off plasmid, transfected with pTELJAK3 (pTRE2 vector); the other entry of the earlier key: ETV6 (P41212, Transcription factor ETV6)
T2 sequence (P52333 with tags, fused parts or gaps): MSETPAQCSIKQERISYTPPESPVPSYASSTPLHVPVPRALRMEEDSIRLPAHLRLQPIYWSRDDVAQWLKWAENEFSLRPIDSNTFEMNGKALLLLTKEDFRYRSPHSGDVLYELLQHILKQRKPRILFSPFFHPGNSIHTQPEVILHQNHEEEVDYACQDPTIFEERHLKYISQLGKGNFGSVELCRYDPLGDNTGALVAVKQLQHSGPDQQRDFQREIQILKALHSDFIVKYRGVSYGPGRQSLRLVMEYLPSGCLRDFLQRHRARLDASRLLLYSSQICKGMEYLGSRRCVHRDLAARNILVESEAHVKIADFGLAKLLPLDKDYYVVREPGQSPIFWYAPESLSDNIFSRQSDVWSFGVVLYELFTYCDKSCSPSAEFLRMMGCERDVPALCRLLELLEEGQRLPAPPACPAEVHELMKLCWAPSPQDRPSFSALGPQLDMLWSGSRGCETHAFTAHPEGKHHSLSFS
Put plainly: Cellular growth inhibition assay (MTT), BaF3 TEL:JAK3 cell line. It is filed as cell-based. To be noted: Table 1, 40 hr incubation.

Assay [4] relates to Tubulin (microtubule protein). Put plainly: Tubulin assay (turbidometric assay of microtubule assembly). The format is biochemical. The note with it: Table 1; 50 μM; absorbance at 340 nm, 37° C. How it is done:
Turbidometric assays of microtubule assembly were performed by incubating microtubule protein in cuvettes at 37° C. in a thermostatically controlled spectrophotometer measuring the change in absorbance at 340 nm over time. The microtubule protein was incubated with the each test compound at 0° C. and polymerisation was initiated by addition of 1 mM GTP, prior to heating to 37° C.

Consider `CCCC(Nc1cncc(-c2ccc(CO)cc2)n1)c1ccccc1` (stereo not drawn), for which the inhibition at 20 µM (with DU145 (Prostate Cancer); with PC3 (Prostate Cancer); in assay [1]; in assay [2]; in assay [3]) was greater than 50% throughout. For the same compound, the “Tubulin inhibition of tubulin polymerisation” value (“Tubulin inhibition” below) in assay [4] was “+ (compounds which inhibited tubulin polymerisation by greater than 50% at 50 μM)”.
As to `COc1cc(-c2nccc(N[C@@H](C)c3ccccc3)n2)ccc1O`, the inhibition at 20 µM (with DU145 (Prostate Cancer); in the assay with PC3 (Prostate Cancer); in assay [1]; in assay [2]; in assay [3]) was greater than 50% in each case. In addition, the “Tubulin inhibition” value in assay [4] is “+ (compounds which inhibited tubulin polymerisation by greater than 50% at 50 μM)”.
`COc1cc(-c2cncc(N[C@@H](C)c3ccccc3)c2)ccc1O`: the inhibition at 20 µM (with DU145 (Prostate Cancer); in the assay with PC3 (Prostate Cancer); in assay [1]; in assay [2]; in assay [3]) was greater than 50% throughout. Also, the “Tubulin inhibition” value in assay [4] is given as “+ (compounds which inhibited tubulin polymerisation by greater than 50% at 50 μM)”.
With `CCCC(Nc1cncc(-c2ccc(O)c(OC)c2)c1)c1ccccc1` (stereo not drawn), the inhibition at 20 µM (in the assay on DU145 (Prostate Cancer); in the assay with PC3 (Prostate Cancer); in assay [1]; in assay [2]; in assay [3]) was greater than 50% throughout. Besides, the “Tubulin inhibition” value in assay [4] is listed as “+ (compounds which inhibited tubulin polymerisation by greater than 50% at 50 μM)”.
As to `CCCC(Nc1cncc(-c2cc(C)c(O)c(C)c2)c1)c1ccccc1` (stereo not drawn), the inhibition at 20 µM (with DU145 (Prostate Cancer); with PC3 (Prostate Cancer); in assay [1]; in assay [2]; in assay [3]) was greater than 50% throughout. The “Tubulin inhibition” value in assay [4] was “+ (compounds which inhibited tubulin polymerisation by greater than 50% at 50 μM)”.
